Values joined by “and” are separate entries in the source; they are usually repeats but may differ in a detail not shown here. Equal entries are not always repeated.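 In this assay, cells in 96-well plates receive the compound at five concentrations for 48 hours. Endpoints are linearly interpolated between the surrounding concentrations. GI50 = concentration required for 50% inhibition of growth. The concentration for full growth arrest is given as TGI.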
tested on: MDA-MB-468 breast; experiment: NCI tumour cell line growth inhibition, 48 h

Structure (SMILES)	GI50	TGI
Cc1ccc(C2=Nc3c(N)ncnc3NC(c3ccc4c(c3)OCO4)C2)cc1 (stereo not given)	3680 nM	> 100 µM
COCCN1CCN(Cc2ccc(-c3n[nH]c4c3C(=O)c3c(NC(=O)NN5CCOCC5)cccc3-4)cc2)CC1	19.8 nM	0.0669 µM
CCOC(=O)c1c(C)nc2c(c1N)CC(=O)N2CCc1ccccc1	2390 nM	30 µM
O=C1Nc2ccccc2/C1=C\c1nc(C2CCN(S(=O)(=O)c3ccc(F)cc3)CC2)n2ccccc12	3920 nM	> 100 µM
CCCCNC(=O)Oc1ccc(/C(=C(/C)Cc2ccc(OC)cc2)c2ccc(OCCN3CCCC3)cc2)cc1	1720 nM	3.43 µM
CCN(CC)CCN(Cc1ccc(F)cc1)c1ccc(CO)c(Cl)c1	430 nM	1.75 µM
C#C[C@]1(O)CC[C@H]2[C@@H]3CC=C4c5sc(Nc6cc(OC)ccc6OC)nc5CC[C@]4(C)[C@H]3CC[C@@]21C	1530 nM	3.96 µM
COc1cc2ncnc(Nc3ccc4c(cnn4Cc4ccccc4)c3)c2cc1OC	59.6 nM	0.584 µM
NCCOc1ccccc1/C=C1\c2ccccc2-c2ccc([N+](=O)[O-])cc21	1540 nM	3.11 µM
Cc1cc2nc3cc(C)c(N)cc3[n+](-c3ccccc3)c2cc1N	79.8 nM	1.12 µM
COc1ccc2c(c1)CCCN2S(=O)(=O)c1ccccc1[N+](=O)[O-]	25700 nM	95.1 µM
CCC(=O)Nc1ccccc1C#C/C=C\C#Cc1ccccc1C(F)(F)F	1980 nM	> 14 µM
COc1ccc2c(Cl)cc(NC(=O)Nc3c(C)cccc3C)nc2c1	84800 nM	> 100 µM
Cn1c2ccccc2c2c3[nH][nH]c(=O)c3c3c4ccccc4[nH]c3c21	2280 nM	9.19 µM
CC(C)n1nc(-c2ccc3oc(N)nc3c2)c2c(N)ncnc21	< 10 nM and 10.1 nM	0.0649 µM and 0.0633 µM
Nc1nc(N)c2c(n1)NC(c1ccccc1)C1CCc3ccccc3C1=N2 (stereo not given)	473 nM	3.25 µM
OCCNCCCOc1ccc2ncnc(Nc3ccc(Oc4cccc(C(F)(F)F)c4)c(Cl)c3)c2c1	626 nM	2.21 µM
Cc1cc(C(=O)NC(CCC(=O)O)C(=O)O)sc1CCC1CNc2nc(N)[nH]c(=O)c2C1 (stereo not given)	58.4 nM and 83.8 nM	> 100 µM
O=C1C(=O)c2ccccc2C(O)=C1CCCc1ccc(C2CCCCCC2)cc1	397 nM	17.2 µM
COC(=O)/C=C1/SC(N2N=C(c3cccs3)CC2c2ccc(F)cc2)=NC1=O (stereo not given)	1940 nM	4.37 µM
COc1cc(-c2cc(/C=C/C(=O)c3ccc(Cl)c(Cl)c3)[nH]n2)cc(OC)c1OC	1980 nM	7.22 µM
C[C@]1(Cn2ccnn2)C(C(=O)O)N2C(=O)CC2S1(=O)=O (stereo not given in full)	> 100000 nM	> 100 µM
CCCCC(=O)N/N=C/c1c(O)ccc2ccccc12	999 nM	11.7 µM
Cc1[nH]c(-c2nc3ccccc3[nH]2)c(C)c1C(=O)NC(C)C1CCCCC1 (stereo not given)	6820 nM	28.3 µM

Structure (SMILES)	GI50	TGI
O=[n+]1c2ccccc2n([O-])c2cc(Cl)ccc21	1240 nM	4.96 µM
COc1cc(-c2n/c(=C\c3c(O)[nH]c4cc(Cl)ccc34)cc3c2=Nc2ccccc2-3)cc(OC)c1OC	3340 nM	20.9 µM
Cc1ccc(C(SCC(N)C(=O)O)(c2ccccc2)c2ccccc2)cc1 (stereo not given)	45.3 nM	> 49.5 µM
Cc1[nH]nc2c1N=C(c1ccccc1F)c1cc(C(N)=O)ccc1N2	1160 nM	8 µM
Cc1nc(N)sc1-c1csc(Nc2ccc(C(F)(F)F)cc2)n1	2250 nM	8.77 µM
CN(C)CC(C(=O)Cc1ccccc1)c1ccccc1 (stereo not given)	494 nM	2.05 µM
CCCNC(=O)c1ccc(Cl)cc1Cl	> 100000 nM	> 100 µM
Cc1cc(C(=O)O)c(C)n1-c1cccc(C(=O)O)c1	> 100000 nM	> 100 µM
N#Cc1c(N)nc(N)nc1N[C@H](c1nc2c(F)ccc(Cl)c2c(=O)n1-c1cccnc1)C1CC1	2040 nM	13.9 µM
C[C@]12CC[C@H]3[C@@H](C[C@@H]4SC(Nc5ccccc5)=N[C@@]45CC(O)CC[C@]35C)[C@@H]1CCC2O (stereo not given in full)	1720 nM	3.38 µM
COc1ccc(Cn2cc3c(c2-c2cc(OC)c(OC)c(OC)c2)CCc2c(CN4CCOCC4)noc2-3)cc1	453 nM	> 100 µM
CN1CCN(c2nc(NCCCNc3ccnc4cc(Cl)ccc34)c3ccccc3n2)CC1	2140 nM	6.14 µM
N=C(N)c1ccc(-c2ccc(-c3cccs3)s2)s1	217 nM	0.651 µM
CCCCNC(=O)c1cc(NCc2cc(O)ccc2O)ccc1O	12300 nM	33.9 µM
COc1cc(C2C3=C(COC3=O)Nc3c2ccc2c3CCCC2)cc2c1OCO2 (stereo not given)	28.7 nM	0.0986 µM
CN1CCN(Cc2ccc(NC(=O)c3cncc(C#Cc4cncc5nccnc45)c3)cc2C(F)(F)F)CC1	7060 nM	15.9 µM
CCc1cc2ncc(CN3CCN(c4ccc(C(=O)NC)nc4)CC3)cc2[nH]c1=O	13300 nM	> 100 µM
CN(c1ccc(Br)cc1)S(=O)(=O)c1ccc(-c2cnc(C3CC3)o2)cc1	41.4 nM	
c1cncc(C2Nc3cccc4cccc(c34)N2)c1	2930 nM	16.7 µM
CCCCc1n(Cc2ccc3ccccc3c2)cc[n+]1Cc1ccc2ccccc2c1	297 nM	1.13 µM
COc1ccc(/C=C2\CN(Cc3cn(CCNc4ccnc5cc(Cl)ccc45)nn3)C/C(=C\c3ccc(OC)c(OC)c3)C2=O)cc1OC	1510 nM	4.41 µM
Cc1cc(N2CCCC2)nc(NCc2cc(Nc3ccnc4cc(Cl)ccc34)ccc2F)n1	1140 nM	2.61 µM
C[n+]1c(-c2ccc(/C=N/NC(=O)c3ccc(C(=O)N/N=C/c4ccc(-c5cn6ccccc6[n+]5C)cc4)cc3)cc2)cn2ccccc21	114000 nM	326 µM
COc1cc(N2CCN(C(C)C)CC2)ccc1Nc1nc(Nc2cccc(F)c2C(=O)O)c2cc[nH]c2n1	> 25000 nM	> 25 µM
